Reference: ChEMBL document CHEMBL5033996, “Design, Synthesis, and Bioactivity Evaluation of Dual-Target Inhibitors of Tubulin and Src Kinase Guided by Crystal Structure” (J Med Chem, 2021)

Assays:
SK-OV-3 [1] = assay: Antiproliferative activity against human SK-OV-3 cells assessed as inhibition of cell proliferation measured after 72 hrs by MTT assay; format: functional, cell-based; details: SK-OV-3, 72 h
[2] = Clearance in Sprague-Dawley rat at 5 mg/kg, po measured up to 24 hrs by LC/MS/MS analysis; format: ADME, organism-based; details: in vivo
[3] = Half life in Sprague-Dawley rat at 5 mg/kg, po measured up to 24 hrs by LC/MS/MS analysis; format: ADME, organism-based; details: in vivo
Tubulin = assay: Binding affinity to tubulin (unknown origin) assessed as dissociation constant by tryptophan based binding assay; format: protein-complex assay, Homo sapiens
Ramos = assay: Antiproliferative activity against human Ramos cells assessed as inhibition of cell proliferation measured after 72 hrs by MTT assay; format: functional, cell-based
[4] = AUC (0 to t) in Sprague-Dawley rat at 5 mg/kg, po measured up to 24 hrs by LC/MS/MS analysis; format: ADME, organism-based; set-up: route oral, dose 5 mg/kg, time <=24; details: in vivo
[5] = Toxicity in C57 mouse at 10 mg/kg, po administered twice daily; format: organism-based; details: in vivo
[6] = Intrinsic clearance in human liver microsomes; format: ADME, Microsome
[7] = Cmax in Sprague-Dawley rat at 5 mg/kg, po measured up to 24 hrs by LC/MS/MS analysis; format: ADME, organism-based; set-up: route oral, dose 5 mg/kg, time <=24; details: in vivo
K562 = assay: Antiproliferative activity against human K562 cells assessed as inhibition of cell proliferation measured after 72 hrs by MTT assay; format: functional, cell-based; details: K562, 72 h
[8] = Half life in human liver microsomes; format: ADME, Microsome
[9] = Tmax in Sprague-Dawley rat at 5 mg/kg, po measured up to 24 hrs by LC/MS/MS analysis; format: ADME, organism-based; details: in vivo
[10] = target: Focal adhesion kinase 1 (Homo sapiens) (UniProt Q05397); assay: Inhibition of FAK phosphorylation at […] residue in human SK-OV-3 cells incubated for 24 hrs by Western blot analysis; format: cell-based
Focal adhesion kinase 1 (Homo sapiens), sequence (Q05397 2-1052 limits assumed): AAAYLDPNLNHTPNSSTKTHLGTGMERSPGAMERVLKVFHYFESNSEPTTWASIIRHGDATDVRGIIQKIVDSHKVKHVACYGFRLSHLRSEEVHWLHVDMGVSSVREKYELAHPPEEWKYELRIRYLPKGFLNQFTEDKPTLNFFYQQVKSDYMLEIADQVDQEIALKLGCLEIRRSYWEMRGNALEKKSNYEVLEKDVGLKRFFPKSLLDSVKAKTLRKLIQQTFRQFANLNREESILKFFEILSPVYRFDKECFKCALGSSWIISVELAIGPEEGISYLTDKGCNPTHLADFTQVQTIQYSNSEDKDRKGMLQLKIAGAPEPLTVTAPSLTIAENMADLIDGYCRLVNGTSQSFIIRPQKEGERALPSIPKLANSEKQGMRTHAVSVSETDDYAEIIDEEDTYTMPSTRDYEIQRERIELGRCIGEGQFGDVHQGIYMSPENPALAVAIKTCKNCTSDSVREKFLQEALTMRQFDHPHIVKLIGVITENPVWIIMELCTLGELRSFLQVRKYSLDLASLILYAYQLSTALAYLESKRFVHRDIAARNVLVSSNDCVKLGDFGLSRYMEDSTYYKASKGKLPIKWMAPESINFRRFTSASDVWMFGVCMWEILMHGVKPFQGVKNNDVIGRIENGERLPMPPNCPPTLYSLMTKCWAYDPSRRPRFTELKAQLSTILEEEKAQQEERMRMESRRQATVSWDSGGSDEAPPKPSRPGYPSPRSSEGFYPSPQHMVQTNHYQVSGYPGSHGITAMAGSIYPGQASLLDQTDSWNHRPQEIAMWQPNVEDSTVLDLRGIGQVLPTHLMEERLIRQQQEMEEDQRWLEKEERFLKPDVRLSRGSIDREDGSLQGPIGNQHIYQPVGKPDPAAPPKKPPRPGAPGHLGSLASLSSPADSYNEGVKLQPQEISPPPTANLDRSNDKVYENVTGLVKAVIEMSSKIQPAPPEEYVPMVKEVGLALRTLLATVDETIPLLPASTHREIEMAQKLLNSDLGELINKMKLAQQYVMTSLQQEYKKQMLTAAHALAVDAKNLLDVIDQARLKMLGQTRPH

[11] = Oral bioavailability in Sprague-Dawley rat at 5 mg/kg measured up to 24 hrs by LC/MS/MS analysis; format: ADME, organism-based; details: in vivo
[12] = target: Proto-oncogene tyrosine-protein kinase Src (Homo sapiens) (UniProt P12931); assay: Inhibition of Src kinase phosphorylation at Tyr416/419 residue in human SK-OV-3 cells incubated for 24 hrs by Western blot analysis; format: cell-based
Proto-oncogene tyrosine-protein kinase Src (Homo sapiens), sequence (P12931 2-536 limits assumed): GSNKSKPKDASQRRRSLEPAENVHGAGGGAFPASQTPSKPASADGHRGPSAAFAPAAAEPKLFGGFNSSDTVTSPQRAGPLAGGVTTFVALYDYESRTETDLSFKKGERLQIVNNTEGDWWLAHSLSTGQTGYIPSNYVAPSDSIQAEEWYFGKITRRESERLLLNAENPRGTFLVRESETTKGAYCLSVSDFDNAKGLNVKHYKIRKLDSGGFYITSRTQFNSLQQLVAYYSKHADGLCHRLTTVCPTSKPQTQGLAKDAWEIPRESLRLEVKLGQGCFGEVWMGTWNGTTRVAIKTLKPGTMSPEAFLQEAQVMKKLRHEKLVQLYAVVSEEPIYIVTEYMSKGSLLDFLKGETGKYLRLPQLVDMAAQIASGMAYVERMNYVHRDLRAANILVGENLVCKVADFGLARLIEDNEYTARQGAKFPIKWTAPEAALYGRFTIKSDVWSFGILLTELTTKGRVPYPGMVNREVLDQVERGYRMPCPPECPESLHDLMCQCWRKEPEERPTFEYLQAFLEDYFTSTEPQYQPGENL

SK-OV-3 [13] = assay: Induction of cell cycle arrest in human SK-OV-3 cells assessed as accumulation of cells at G0/G1 phase at 100 nM incubated for 24 hrs by PI staining based flow cytometry analysis (reference value: 49.60 %); format: functional
SK-OV-3 [14] = assay: Induction of cell cycle arrest in human SK-OV-3 cells assessed as accumulation of cells at S phase at 10 nM incubated for 24 hrs by PI staining based flow cytometry analysis (reference value: 21.4 %); format: functional
SK-OV-3 [15] = assay: Induction of cell cycle arrest in human SK-OV-3 cells assessed as accumulation of cells at G0/G1 phase at 20 nM incubated for 24 hrs by PI staining based flow cytometry analysis (reference value: 49.60 %); format: functional
[16] = Antitumor activity against mouse C26 cells xenografted in BALB/c mouse assessed as tumor growth inhibition at 10 mg/kg, po measured every 2 days for 10 days by vernier caliper analysis relative to control; format: functional; details: 240 h, time 10 day, read-out: TGI
SK-OV-3 [17] = assay: Induction of cell cycle arrest in human SK-OV-3 cells assessed as accumulation of cells at G2/M phase at 100 nM incubated for 24 hrs by PI staining based flow cytometry analysis (reference value: 28.94%); format: functional
SK-OV-3 [18] = assay: Induction of cell cycle arrest in human SK-OV-3 cells assessed as accumulation of cells at G0/G1 phase at 10 nM incubated for 24 hrs by PI staining based flow cytometry analysis (reference value: 49.60 %); format: functional
SK-OV-3 [19] = assay: Induction of cell cycle arrest in human SK-OV-3 cells assessed as accumulation of cells at G2/M phase at 20 nM incubated for 24 hrs by PI staining based flow cytometry analysis (reference value: 28.94%); format: functional
SK-OV-3 [20] = assay: Induction of cell cycle arrest in human SK-OV-3 cells assessed as accumulation of cells at S phase at 100 nM incubated for 24 hrs by PI staining based flow cytometry analysis (reference value: 21.4 %); format: functional
SK-OV-3 [21] = assay: Induction of cell cycle arrest in human SK-OV-3 cells assessed as accumulation of cells at G2/M phase at 10 nM incubated for 24 hrs by PI staining based flow cytometry analysis (reference value: 28.94%); format: functional
[22] = Toxicity in mouse xenografted with human SK-OV-3 cells assessed as effect on body weight at 10 mg/kg, po administered for 30 days; format: organism-based; details: in vivo, 720 h, time 30 day
SK-OV-3 [23] = assay: Induction of cell cycle arrest in human SK-OV-3 cells assessed as accumulation of cells at S phase at 20 nM incubated for 24 hrs by PI staining based flow cytometry analysis (reference value: 21.4 %); format: functional
[24] = Antitumor activity against human SK-OV-3 cells xenografted in nude mouse assessed as tumor growth inhibition at 10 mg/kg, po measured every 3 days for 1 month by vernier caliper analysis relative to control; format: functional; details: SK-OV-3, po, 730 h, time 1 months, read-out: TGI
[25] = Toxicity in C57 mouse at 40 mg/kg, po administered twice daily; format: organism-based; details: in vivo
[26] = Toxicity in BALB/c mouse xenografted with mouse C26 cells assessed as death at 10 mg/kg, po measured every 2 days for 10 days; format: organism-based; details: in vivo, 240 h, time 10 day

IC50 (SK-OV-3 [1]) [nM]	CL/F [2] [mL/min/kg]	half-life [3] [min]	Kd (Tubulin) [nM]	IC50 (Ramos) [nM]	AUC(0-t) at 24 h [4] [ng·h/mL]	CLH [6] [mL·min/g]	Cmax [7] [ng/mL]	IC50 (K562) [nM]	half-life [8] [min]	Tmax [9] [min]	bioavailability [11] [%]	Structure (SMILES)	inhibition [10]	inhibition [12]	inhibition in vivo at 10 mg/kg [16] [%]	also measured
0.6	25.8	305	300	1.6	4180	26.6	742	1.4	52.1	42	79.9	O=C(Cc1ccc(-c2ccc(OCCN3CCN(C(=O)[C@@H]4C[C@@H]4F)CC3)cc2)cn1)NCc1ccccc1	Dose-Dependent Effect	Dose-Dependent Effect	–	Activity [5]: Toxic
6.8	88.5	740	1110	15.7	840	31.4	431	18.2	44.1	15	34.9	O=C(Cc1ccc(-c2ccc(OCCN3CCOCC3)cc2)cn1)NCc1ccccc1 [TIRBANIBULIN]	–	–	51	Activity (SK-OV-3 [13]): 15.39%; Activity (SK-OV-3 [14]): 19.33%; Activity (SK-OV-3 [15]): 40.07%; Activity (SK-OV-3 [17]): 64.41%; Activity (SK-OV-3 [18]): 46.66%; Activity (SK-OV-3 [19]): 40.35%; Activity (SK-OV-3 [20]): 20.2%; Activity (SK-OV-3 [21]): 34.01%; Activity [22]: Non-Toxic; Activity (SK-OV-3 [23]): 19.58%; inhibition in vivo at 10 mg/kg [24]: 42%

Structure (SMILES)	IC50 (SK-OV-3 [1]) [nM]	CL/F [2] [mL/min/kg]	half-life [3] [min]	Kd (Tubulin) [nM]	IC50 (Ramos) [nM]	AUC(0-t) at 24 h [4] [ng·h/mL]	CLH [6] [mL·min/g]	Cmax [7] [ng/mL]	IC50 (K562) [nM]	half-life [8] [min]	Tmax [9] [min]	bioavailability [11] [%]	inhibition [10]	inhibition [12]	inhibition in vivo at 10 mg/kg [16] [%]	also measured
O=C(Cc1ccc(-c2ccc(OCCN3CCN(C(=O)C4CC4)CC3)cc2)cn1)NCc1ccccc1	1.1	55.7	158	290	1.3	1620	36	593	2.5	38.5	49.8	52.2	Dose-Dependent Effect	Dose-Dependent Effect	73	Activity [25]: Non-Toxic; Activity [26]: Toxic
